53 compounds from ChEMBL document CHEMBL1149346, “Activity of nitrogen-containing and non-nitrogen-containing bisphosphonates on tumor cell lines” (J Med Chem, 2006) can be followed below.

Common to all, as to type: functional, cell-based
Test [1] deals with SF-268. As to the kind of experiment: cells. Particulars: Homo sapiens.
Description: Antiproliferative activity against human SF-268 cell line by MTT assay
Test [2] concerns MCF7. The test is described as follows: Antiproliferative activity against human MCF7 cell line by MTT assay.
The subject of test [3] is NCI-H460. As to the kind of experiment: Antiproliferative activity against human NCI-H460 cell line by MTT assay.

Molecules are shown by their SMILES.

As a reminder, the IC50 is the point on the concentration scale where inhibition reaches its midpoint. `O=P([O-])(O)C(O)(C[n+]1ccc(Cc2ccccc2)cc1)P(=O)(O)O` (centres undefined): the IC50 was 111 µM in test [1], 191 µM in test [2] and 211 µM in test [3].
The matching figures for `O=P([O-])(O)C(O)(C[n+]1ccccc1)P(=O)(O)O` (centres undefined): 46.8 µM, 79.4 µM and 69.9 µM.
As for `CCc1ccc[n+](CC(O)(P(=O)([O-])O)P(=O)(O)O)c1` (centres undefined), the IC50 is 45.8 µM in test [1], 50.7 µM in test [2] and 71.7 µM in test [3].
Regarding `O=P([O-])(O)C(O)(C[n+]1cccc(-c2ccccc2)c1)P(=O)(O)O` (centres undefined), the IC50 is 27.2 µM in test [1], 44.2 µM in test [2] and 52.2 µM in test [3].
`Cc1ccc[n+](CC(O)(P(=O)([O-])O)P(=O)(O)O)c1` (centres undefined): the IC50 in test [1] stood at 52.6 µM; in test [2], 98.1 µM; in test [3], 66.8 µM.
Regarding `O=P([O-])(O)C(O)(C[n+]1cccc(-c2ccc(O)cc2)c1)P(=O)(O)O` (centres undefined), the IC50 in test [1] turned out to be 30.7 µM; in test [2] it was 37.2 µM; in test [3] it was 74.4 µM.
Take `O=P([O-])(O)C(O)(C[n+]1cccc(F)c1)P(=O)(O)O` (centres undefined): the concentration for half-maximal inhibition (IC50) in test [1] turned out to be 49.3 µM; in test [2], 58.1 µM; in test [3], 65.8 µM.
Take `O=P(O)(O)C(Cc1ccc(Br)c(Br)c1)P(=O)(O)O`: the IC50 in test [1] turned out to be 349 µM; in test [2], 533 µM; in test [3] it was 446 µM.
In the case of `O=P([O-])(O)C(O)(C[n+]1cccc(-c2ccc(F)cc2)c1)P(=O)(O)O` (centres undefined), the IC50 was determined as 6.5 µM in test [1], 17.3 µM in test [2] and 5.6 µM in test [3].
On to `CC(C)OC(=O)OCOP(=O)(OCOC(=O)OC(C)C)C(Cc1cccc(C#N)c1)P(=O)(OCOC(=O)OC(C)C)OCOC(=O)OC(C)C`, for which the 50% inhibitory concentration (IC50) in test [1] turned out to be 7.77 µM; in test [2], 58.6 µM; in test [3], 22.6 µM.
As to `CC(C)(C)C(=O)OCOP(=O)(OCOC(=O)C(C)(C)C)C(Cc1ccc(Br)c(Br)c1)P(=O)(OCOC(=O)C(C)(C)C)OCOC(=O)C(C)(C)C`, the results for the IC50 in test [1], in test [2] and in test [3] were 0.65 µM, 0.22 µM and 0.62 µM, respectively.
Consider `CC(C)OC(=O)OCOP(=O)(OCOC(=O)OC(C)C)C(Cc1ccc(Cl)c(Cl)c1)P(=O)(OCOC(=O)OC(C)C)OCOC(=O)OC(C)C`, for which the IC50 is 4.78 µM in test [1], 1.97 µM in test [2] and 4.85 µM in test [3].
`CC(C)OC(=O)OCOP(=O)(OCOC(=O)OC(C)C)C(Cc1ccc(F)c(F)c1)P(=O)(OCOC(=O)OC(C)C)OCOC(=O)OC(C)C`: the results for the IC50 in test [1], in test [2] and in test [3] were 28.3 µM, 15.2 µM and 20.1 µM, respectively.
In the case of `Cc1ccc2ccc[n+](CC(O)(P(=O)([O-])O)P(=O)(O)O)c2c1` (centres undefined), the IC50 in test [1] turned out to be 257 µM; in test [2], 289 µM; in test [3], 270 µM.
The matching figures for `CC(C)(C)C(=O)OCOP(=O)(OCOC(=O)C(C)(C)C)C(Cc1cccc(-c2cccc(-c3ccccc3)c2)c1)P(=O)(OCOC(=O)C(C)(C)C)OCOC(=O)C(C)(C)C`: 2.38 µM, 2.62 µM and 1.64 µM.
As to `O=P([O-])(O)C(C[n+]1ccc(-c2ccccc2-c2ccccc2)cc1)P(=O)(O)O` (centres undefined), the results for the concentration for half-maximal inhibition (IC50) in test [1], in test [2] and in test [3] were 243 µM, 280 µM and 284 µM, respectively.
Turning to `CC(C)(C)C(=O)OCOP(=O)(OCOC(=O)C(C)(C)C)C(CNc1ccccn1)P(=O)(OCOC(=O)C(C)(C)C)OCOC(=O)C(C)(C)C`, the values for the 50% inhibitory concentration (IC50) in test [1], in test [2] and in test [3] were 7.89 µM, 6.44 µM and 5.95 µM, respectively.
On the same counts, the results for `Cc1ccc[n+](CC(P(=O)([O-])O)P(=O)(O)O)c1` (centres undefined) are 44.6 µM, 38.1 µM and 62 µM.
Consider `O=P(O)(O)C(O)(CCc1cccc(-c2ccccc2-c2ccccc2)c1)P(=O)(O)O`, for which the IC50 is 143 µM in test [1], 146 µM in test [2] and 133 µM in test [3].
Consider `O=P([O-])(O)C(C[n+]1cccc(Br)c1)P(=O)(O)O` (centres undefined), for which the half-inhibitory concentration (IC50) in test [1] was determined as 109 µM; in test [2], 143 µM; in test [3] it was 92.9 µM.
As for `O=P(O)(O)C(O)(Cc1cccc(-c2cccc(-c3ccccc3)c2)c1)P(=O)(O)O`, the results for the half-maximal inhibitory concentration (IC50) in test [1], in test [2] and in test [3] were 130 µM, 152 µM and 140 µM, respectively.
For the compound `O=P(O)(O)C(O)(CCc1cccc(-c2ccc(-c3ccccc3)cc2)c1)P(=O)(O)O`, the IC50 in test [1] worked out at 175 µM; in test [2], 196 µM; in test [3] it was 132 µM.
Turning to `O=P(O)(O)C(CNCc1cccc(-c2ccccc2)c1)P(=O)(O)O`, the half-inhibitory concentration (IC50) turned out to be 6.18 µM in test [1], 46 µM in test [2] and 5.73 µM in test [3].
On the same counts, the results for `O=P([O-])(O)C(O)(C[n+]1cccc(Cl)c1)P(=O)(O)O` (centres undefined) are 58.3 µM, 121 µM and 58.1 µM.
With `O=P(O)(O)C(O)(c1cccc(-c2cccc(-c3ccccc3)c2)c1)P(=O)(O)O`, the IC50 was 303 µM in test [1], 310 µM in test [2] and 285 µM in test [3].
On the same counts, the results for `COc1cc[n+](CC(O)(P(=O)([O-])O)P(=O)(O)O)cc1` (centres undefined) are 436 µM, 409 µM and 644 µM.
Turning to `O=P([O-])(O)C(C[n+]1cccc(-c2ccccc2-c2ccccc2)c1)P(=O)(O)O` (centres undefined), the IC50 was determined as 232 µM in test [1], 236 µM in test [2] and 208 µM in test [3].
Regarding `O=P(O)(O)C(O)(Cc1cccc(-c2ccccc2-c2ccccc2)c1)P(=O)(O)O`, the IC50 in test [1] was 58 µM; in test [2], 92.7 µM; in test [3] it was 86.1 µM.
Turning to `O=P(O)(O)C(O)(Cc1ccc(-c2ccccc2-c2ccccc2)cc1)P(=O)(O)O`, the IC50 in test [1] stood at 475 µM; in test [2], 1060 µM; in test [3] it was 329 µM.
For the compound `O=P([O-])(O)C(C[n+]1cccc(C(F)(F)F)c1)P(=O)(O)O` (centres undefined), the IC50 in test [1] worked out at 132 µM; in test [2], 129 µM; in test [3] it was 142 µM.
Turning to `O=P(O)(O)C(CNc1ccncc1)P(=O)(O)O`, the results for the IC50 in test [1], in test [2] and in test [3] were 14.4 µM, 22.7 µM and 12.6 µM, respectively.
Turning to `O=P(O)(O)C(CNc1ccccn1)P(=O)(O)O`, the IC50 in test [1] is 147 µM; in test [2] it was 223 µM; in test [3] it was 63.7 µM.
The matching figures for `O=P([O-])(O)C(O)(C[n+]1cccc(Cc2ccccc2)c1)P(=O)(O)O` (centres undefined): 67 µM, 69.2 µM and 18.5 µM.
`CCCCc1ccc[n+](CC(O)(P(=O)([O-])O)P(=O)(O)O)c1` (centres undefined): the IC50 in test [1] was 13.1 µM; in test [2], 21.4 µM; in test [3], 14.8 µM.
On the same counts, the results for `CC(C)(C)C(=O)OCOP(=O)(OCOC(=O)C(C)(C)C)C(Cc1ccc(Cl)c(Cl)c1)P(=O)(OCOC(=O)C(C)(C)C)OCOC(=O)C(C)(C)C` are 1.43 µM, 0.34 µM and 2.7 µM.
On the same counts, the results for `O=P([O-])(O)C(O)(C[n+]1cccc(Br)c1)P(=O)(O)O` (centres undefined) are 55.7 µM, 33.5 µM and 54.5 µM.
Turning to `O=P([O-])(O)C(C[n+]1cccc(I)c1)P(=O)(O)O` (centres undefined), the IC50 was determined as 89.3 µM in test [1], 123 µM in test [2] and 53.7 µM in test [3].
As to `CCCCc1ccc[n+](CC(P(=O)([O-])O)P(=O)(O)O)c1` (centres undefined), the half-maximal inhibitory concentration (IC50) in test [1] was found to be 24.1 µM; in test [2] it was 26.5 µM; in test [3], 33 µM.
The matching figures for `O=P([O-])(O)C(O)(C[n+]1cccc(-c2ccc(C(F)(F)F)cc2)c1)P(=O)(O)O` (centres undefined): 10.4 µM, 14.5 µM and 23.2 µM.
With `Cc1ccc2c(ccc[n+]2CC(O)(P(=O)([O-])O)P(=O)(O)O)c1` (centres undefined), the figures for the IC50 in test [1], in test [2] and in test [3] were 261 µM, 260 µM and 279 µM, respectively.
Take `O=P([O-])(O)C(C[n+]1ccccc1)P(=O)(O)O` (centres undefined): the figures for the half-maximal inhibitory concentration (IC50) in test [1], in test [2] and in test [3] were 65.1 µM, 72.3 µM and 109 µM, respectively.
On the same counts, the results for `CCc1ccc[n+](CC(P(=O)([O-])O)P(=O)(O)O)c1` (centres undefined) are 44.8 µM, 42.6 µM and 62 µM.
As to `O=P(O)(O)C(O)(CCc1cccc(-c2cccc(-c3ccccc3)c2)c1)P(=O)(O)O`, the IC50 in test [1] worked out at 44.7 µM; in test [2], 43.9 µM; in test [3] it was 46.9 µM.
For `O=P(O)(O)C(O)(Cc1ccc(-c2cccc(-c3ccccc3)c2)cc1)P(=O)(O)O`, the half-inhibitory concentration (IC50) in test [1] was 620 µM; in test [2] it was 412 µM; in test [3], 413 µM.
On the same counts, the results for `O=P([O-])(O)C(C[n+]1cccc(Cl)c1)P(=O)(O)O` (centres undefined) are 72.7 µM, 132 µM and 59 µM.
In the case of `O=P([O-])(O)C(C[n+]1cccc(-c2ccc(-c3ccccc3)cc2)c1)P(=O)(O)O` (centres undefined), the IC50 in test [1] came to 23.2 µM; in test [2], 25.1 µM; in test [3] it was 21.5 µM.
On the same counts, the results for `O=P([O-])(O)C(O)(C[n+]1ccc2ccccc2c1)P(=O)(O)O` (centres undefined) are 260 µM, 288 µM and 297 µM.
As to `O=P([O-])(O)C(C[n+]1ccc(Cc2ccccc2)cc1)P(=O)(O)O` (centres undefined), the IC50 in test [1] was 133 µM; in test [2], 125 µM; in test [3] it was 141 µM.
Consider `O=P([O-])(O)C(O)(C[n+]1ccc(-c2ccccc2)cc1)P(=O)(O)O` (centres undefined), for which the IC50 was 290 µM in test [1], 304 µM in test [2] and 312 µM in test [3].
As to `O=P([O-])(O)C(C[n+]1cccc(-c2ccccc2)c1)P(=O)(O)O` (centres undefined), the IC50 was determined as 43.6 µM in test [1], 34.6 µM in test [2] and 41.3 µM in test [3].
As to `O=P(O)(O)C(Nc1ncccc1OCc1ccccc1)P(=O)(O)O`, the results for the half-maximal inhibitory concentration (IC50) in test [1], in test [2] and in test [3] were 399 µM, 339 µM and 3210 µM, respectively.
The matching figures for `CCC(C)CNC(P(=O)(O)O)P(=O)(O)O` (centres undefined): 301 µM, 447 µM and 469 µM.
On the same counts, the results for `CN(CCCCc1ccccc1)CCC(O)(P(=O)(O)O)P(=O)(O)O` are 49.2 µM, 82.5 µM and 22.9 µM.
